{
  "source": "patent US20240345054A1",
  "about": "“Method of Screening Antioxidants” (Johnson & Johnson Consumer Inc., priority 2021, published 2024)",
  "key": {"[1]": {"assay": "UVA-induced squalene oxidation in vitro model, MDA formed measured by fluorometric TBARS assay", "assay_type": "biochemical", "settings": "20 J/cm^2 UVA; for Efficacy (percentage difference in MDA generation compared to the untreated, UV-stimulated control sample): 0.12 nM protoporphyrin IX, negative = reduction", "experimental": "The antioxidant test model described above was used to test efficacy of various antioxidants in reducing the oxidation of squalene in conditions reflecting approximately two (2) hours of intense sun exposure. The target Oxidizable Component was squalene, in an amount of 30 μL (9.7% w/w) per sample. The solvents selected were dimethyl sulfoxide, propylene glycol (PG), and 1-butanol, in amounts of 8.3% (v/v), 8.3% (v/v), and 83.5% (v/v) per sample, respectively. The tests further included a biological metabolite, specifically protoporphyrin IX, in an amount of 0.12 nM per sample. The exposure to UVA radiation, using a solar simulator (NewportR), Oriel Instruments U.S.A., model 91293-1000), was 20 J/cm^2, as measured by a calibrated UVA detector probe (Solar Light Company, Inc., model PMA2110-UVS) connected to a calibrated simulator controller (Solar Light Company, Inc., model DCS-2).\nTo prepare the antioxidant test solutions, the antioxidants were first dissolved (via vortexing and gentle heating if necessary) in a volume of dimethyl sulfoxide (DMSO) that achieved a target concentration for the predetermined use level as outlined in Table 1.\nThe antioxidant test solutions were then diluted by 50% with propylene glycol (PG). […] The bulk volume was vortexed immediately prior to pipetting 5 replicates of 300 μL samples into the wells of a 24-well plate. The plates were then exposed to the UVA radiation until the target UVA dose was achieved (20 J/cm^2), after which the plate was removed and the amount of MDA formed by lipid peroxidation was analyzed. Care was taken during the experiment to protect the samples from extraneous light oxidation throughout the solution preparation, sample plating, and after the UVA exposure prior to MDA quantitation.\nThe determination of the amount of MDA formed was performed by fluorometric analysis using a commercial TBARS assay kit (Sigma Aldrich, catalogue #MAK085) that reacts thiobarbituric acid with the MDA present in the sample to form a fluorometric product (λex=532/λem=553 nm), which can be easily quantitated with a monochromator-based microplate reader (Tecan Infinite M1000 Pro) and the accompanying software (Tecan i-control). […] The magnitude of efficacy for each sample, expressed as percentage reduction from the untreated control, was averaged for each antioxidant treatment.\nIn Table 2 below, “X” means that there was no significant reduction (p<0.05) in the MDA formation as compared to the UV-stimulated control. The % of concentration of the active in the formula tested is identified as “% conc”."}, "[2]": {"settings": "1% in oil-in-water emulsion, topical twice daily 2 mg/cm^2 for 7 days on the back, human subjects, 10 J/cm^2 UVA; significant (p<0.05); cited from earlier work"}, "[3]": {"settings": "0.05% conc of active in formula"}},
  "data": [
    {"smiles": "O=c1cc(-c2ccc(O)cc2)oc2cc(O)cc(O)c12", "note": "[Apigenin]", "values": [
      {"measurement": "Efficacy (percentage difference in MDA generation compared to the untreated, UV-stimulated control sample)", "setting": "[1]; 0.5% conc of active in formula", "result": "−35", "unit": "%"}
    ]},
    {"smiles": "Cc1cc(C(C)(C)C)c(O)c(C(C)(C)C)c1", "note": "[Butylated hydroxytoluene (BHT), Butylated hydroxytoluene]", "values": [
      {"measurement": "Efficacy (percentage difference in MDA generation compared to the untreated, UV-stimulated control sample)", "setting": "[1]; 0.035% conc of active in formula", "result": "−54", "unit": "%"}
    ]},
    {"smiles": "CC(C)(CO)[C@H](O)C(=O)NCCCO", "note": "[D-Panthenol (Provitamin B5), D-Panthenol]", "values": [
      {"measurement": "Efficacy (percentage difference in MDA generation compared to the untreated, UV-stimulated control sample)", "setting": "[1]; 0.25% conc of active in formula", "result": "−21", "unit": "%"},
      {"measurement": "Efficacy (percentage difference in MDA generation compared to the untreated, UV-stimulated control sample)", "setting": "[1]; 0.5% conc of active in formula", "result": "−18", "unit": "%"}
    ]},
    {"smiles": "COc1cc(/C=C/C(=O)O)ccc1O", "note": "[Ferulic acid]", "values": [
      {"measurement": "Efficacy (percentage difference in MDA generation compared to the untreated, UV-stimulated control sample)", "setting": "[1]; 0.01% conc of active in formula", "result": "−47", "unit": "%"},
      {"measurement": "Efficacy (percentage difference in MDA generation compared to the untreated, UV-stimulated control sample)", "setting": "[1]; [3]", "result": "−41", "unit": "%"},
      {"measurement": "Efficacy (percentage difference in MDA generation compared to the untreated, UV-stimulated control sample)", "setting": "[1]; 0.1% conc of active in formula", "result": "−39", "unit": "%"}
    ]},
    {"smiles": "O=C(O)CO", "note": "[Glycolic acid]", "values": [
      {"measurement": "Efficacy (percentage difference in MDA generation compared to the untreated, UV-stimulated control sample)", "setting": "[1]; 3% conc of active in formula", "result": "−25", "unit": "%"}
    ]},
    {"smiles": "O=C(O)C(O)c1ccccc1", "note": "(centres unmarked) [Mandelic acid]", "values": [
      {"measurement": "Efficacy (percentage difference in MDA generation compared to the untreated, UV-stimulated control sample)", "setting": "[1]; 2% conc of active in formula", "result": 81, "unit": "%"},
      {"measurement": "Efficacy (percentage difference in MDA generation compared to the untreated, UV-stimulated control sample)", "setting": "[1]; 3% conc of active in formula", "result": 69, "unit": "%"}
    ]},
    {"smiles": "NC(=O)c1cccnc1", "note": "[Niacinamide]", "values": [
      {"measurement": "Efficacy (percentage difference in MDA generation compared to the untreated, UV-stimulated control sample)", "setting": "[1]; 0.5% conc of active in formula", "result": 58, "unit": "%"}
    ]},
    {"smiles": "Cc1c(C)c2c(c(C)c1O)CC[C@@](C)(CCC[C@H](C)CCC[C@H](C)CCCC(C)C)O2", "note": "[Vitamin E (alpha-tocopherol), alpha-tocopherol]", "values": [
      {"measurement": "Efficacy (percentage difference in MDA generation compared to the untreated, UV-stimulated control sample)", "setting": "[1]; 0.1% conc of active in formula", "result": "−61", "unit": "%"},
      {"measurement": "Efficacy (percentage difference in MDA generation compared to the untreated, UV-stimulated control sample)", "setting": "[1]; 0.5% conc of active in formula", "result": "−78", "unit": "%"},
      {"measurement": "Efficacy (percentage difference in MDA generation compared to the untreated, UV-stimulated control sample)", "setting": "[1]; 1% conc of active in formula", "result": "−81", "unit": "%"}
    ]},
    {"smiles": "CC(=O)Oc1c(C)c(C)c2c(c1C)CCC(C)(CCC[C@H](C)CCC[C@H](C)CCCC(C)C)O2", "note": "(some centres unmarked) [Vitamin E acetate]", "values": [
      {"measurement": "Efficacy (percentage difference in MDA generation compared to the untreated, UV-stimulated control sample)", "setting": "[1]; 0.1% conc of active in formula", "result": "−36", "unit": "%"}
    ]},
    {"smiles": "O=C(O)/C=C/c1ccc(O)cc1", "note": "[p-coumeric acid]", "values": [
      {"measurement": "Efficacy (percentage difference in MDA generation compared to the untreated, UV-stimulated control sample)", "setting": "[1]; [3]", "result": "−48", "unit": "%"},
      {"measurement": "Efficacy (percentage difference in MDA generation compared to the untreated, UV-stimulated control sample)", "setting": "[1]; 0.1% conc of active in formula", "result": "−55", "unit": "%"}
    ]},
    {"smiles": "O=C1O[C@H]([C@@H](O)CO)C([O-])=C1OP(=O)([O-])[O-].[Na+].[Na+].[Na+]", "note": "[sodium ascorbyl phosphate]", "values": [
      {"measurement": "Efficacy (percentage difference in MDA generation compared to the untreated, UV-stimulated control sample)", "setting": "[1]; 1% conc of active in formula", "result": "−41", "unit": "%"},
      {"measurement": "reduction of UV-induced squalene oxidation as compared to the control sample", "setting": "[1]; 1%, in vitro model", "result": 41, "unit": "%"},
      {"measurement": "reduction of UVA-induced squalene oxidation compared to a placebo formulation", "setting": "[2]", "result": 30, "unit": "%"}
    ]}
  ]
}
